pIC50: −log10 of the molar value.
molecular target: ACSS2 (Homo sapiens, UniProt Q9NR19); assay: biochemical
Experimental: The assay is based on a coupling reaction with Pyrophosphatase: ACSS2 is converting ATP+CoA+Acetate=>AMP+pyrophosphate+Acetyl-CoA (Ac-CoA). Pyrophosphatase converts pyrophosphate, a product of the ACSS2 reaction, to phosphate which can be detected by measuring the absorbance at 620 nm after incubation with the Biomol green reagent (Enzo life Science, BML-AK111).
At the end of the reaction, Biomol Green was added for 30 minutes at RT and the activity was measured by reading the absorbance at 620 nm.
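Further: Pyrophosphatase-coupled ACSS2 enzyme assay, 10 nM protein incubated 90 min at 37 °C with ATP, CoA and acetate, released phosphate read by Biomol Green absorbance at 620 nm.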

Chain of ACSS2 (Q9NR19 whole entry): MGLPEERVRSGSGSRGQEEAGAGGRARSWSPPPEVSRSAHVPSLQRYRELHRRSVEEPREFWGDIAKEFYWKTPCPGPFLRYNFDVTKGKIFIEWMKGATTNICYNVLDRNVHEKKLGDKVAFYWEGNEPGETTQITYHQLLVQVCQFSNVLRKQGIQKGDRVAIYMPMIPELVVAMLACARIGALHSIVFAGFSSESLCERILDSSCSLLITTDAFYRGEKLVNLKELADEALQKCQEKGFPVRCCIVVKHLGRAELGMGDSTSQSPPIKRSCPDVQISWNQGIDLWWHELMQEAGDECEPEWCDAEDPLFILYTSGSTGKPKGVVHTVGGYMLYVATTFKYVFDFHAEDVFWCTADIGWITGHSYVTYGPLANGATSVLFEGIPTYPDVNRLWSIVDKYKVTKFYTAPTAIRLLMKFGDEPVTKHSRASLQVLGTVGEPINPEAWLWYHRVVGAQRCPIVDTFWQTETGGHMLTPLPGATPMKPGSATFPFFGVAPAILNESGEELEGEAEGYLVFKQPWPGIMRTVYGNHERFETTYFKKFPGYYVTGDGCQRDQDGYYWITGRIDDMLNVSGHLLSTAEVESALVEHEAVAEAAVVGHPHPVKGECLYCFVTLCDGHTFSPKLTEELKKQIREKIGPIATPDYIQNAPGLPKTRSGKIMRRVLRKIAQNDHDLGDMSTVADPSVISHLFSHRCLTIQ

| pIC50 | SMILES |
| --- | --- |
| 6.00 to 7.00 | CCC(F)(F)c1cccc(NC(=O)C2C(=O)N(c3cnc(OC)cn3)N=C2C)c1 (centres unmarked) [compound 512, N-(3-(1,1-difluoropropyl)phenyl)-1-(5-methoxypyrazin-2-yl)-3-methyl-5-oxo-4,5-dihydro-1H-pyrazole-4-carboxamide] |
| 7.00 to 8.22 | CCC(F)(F)c1cccc(NC(=O)C2C(=O)N(c3ccc(OC)cc3C(C)=O)N=C2C)c1 (centres unmarked) [compound 516, 1-(2-acetyl-4-methoxyphenyl)-N-(3-(1,1-difluoropropyl)phenyl)-3-methyl-5-oxo-4,5-dihydro-1H-pyrazole-4-carboxamide] |
| 7.00 to 8.22 | CCC(F)(F)c1cccc(NC(=O)C2C(=O)N(c3ccc4ccnnc4c3)N=C2C)c1 (centres unmarked) [compound 524, 1-(cinnolin-7-yl)-N-(3-(1,1-difluoropropyl)phenyl)-3-methyl-5-oxo-4,5-dihydro-1H-pyrazole-4-carboxamide] |
| 6.00 to 7.00 | CCC(F)(F)c1cccc(NC(=O)C2C(=O)N(c3ccc(OC)cc3)N=C2C(C)=O)c1 (centres unmarked) [compound 529, 3-acetyl-N-(3-(1,1-difluoropropyl)phenyl)-1-(4-methoxyphenyl)-5-oxo-4,5-dihydro-1H-pyrazole-4-carboxamide] |
| 8.22 to 11.00 | CCC(F)(F)c1cccc(NC(=O)C2C(=O)N(c3ccc(OC)c(-c4ccnc(C)c4)c3)N=C2C)c1 (centres unmarked) [compound 530, N-(3-(1,1-difluoropropyl)phenyl)-1-(4-methoxy-3-(2-methylpyridin-4-yl)phenyl)-3-methyl-5-oxo-4,5-dihydro-1H-pyrazole-4-carboxamide] |
| 8.22 to 11.00 | CCC(F)(F)c1cccc(NC(=O)C2C(=O)N(c3ccc(OC)c(-c4cc(C)nc(C)c4)c3)N=C2C)c1 (centres unmarked) [compound 531, N-(3-(1,1-difluoropropyl)phenyl)-1-(3-(2,6-dimethylpyridin-4-yl)-4-methoxyphenyl)-3-methyl-5-oxo-4,5-dihydro-1H-pyrazole-4-carboxamide] |
| 8.22 to 11.00 | CCC(F)(F)c1cccc(NC(=O)C2C(=O)N(c3ccc(OC)c(-c4ccncc4C)c3)N=C2C)c1 (centres unmarked) [compound 532, N-(3-(1,1-difluoropropyl)phenyl)-1-(4-methoxy-3-(3-methylpyridin-4-yl)phenyl)-3-methyl-5-oxo-4,5-dihydro-1H-pyrazole-4-carboxamide] |
| 8.22 to 11.00 | CCC(F)(F)c1cccc(NC(=O)C2C(=O)N(c3ccc(OC)c(-c4ccc(C)cn4)c3)N=C2C)c1 (centres unmarked) [compound 534, N-(3-(1,1-difluoropropyl)phenyl)-1-(4-methoxy-3-(5-methylpyridin-2-yl)phenyl)-3-methyl-5-oxo-4,5-dihydro-1 H-pyrazole-4-carboxamide] |
| 8.22 to 11.00 | CCC(F)(F)c1cccc(NC(=O)C2C(=O)N(c3ccc(OC)c(-c4ncccc4C)c3)N=C2C)c1 (centres unmarked) [compound 535, N-(3-(1,1-difluoropropyl)phenyl)-1-(4-methoxy-3-(3-methylpyridin-2-yl)phenyl)-3-methyl-5-oxo-4,5-dihydro-1H-pyrazole-4-carboxamide] |
| 8.22 to 11.00 | CCC(F)(F)c1cccc(NC(=O)C2C(=O)N(c3ccc(OC)c(-c4cccc(C)n4)c3)N=C2C)c1 (centres unmarked) [compound 536, N-(3-(1,1-difluoropropyl)phenyl)-1-(4-methoxy-3-(6-methylpyridin-2-yl)phenyl)-3-methyl-5-oxo-4,5-dihydro-1H-pyrazole-4-carboxamide] |
| 8.22 to 11.00 | CCC(F)(F)c1cccc(NC(=O)C2C(=O)N(c3ccc(OC)c(-c4cc(C)ccn4)c3)N=C2C)c1 (centres unmarked) [compound 537, N-(3-(1,1-difluoropropyl)phenyl)-1-(4-methoxy-3-(4-methylpyridin-2-yl)phenyl)-3-methyl-5-oxo-4,5-dihydro-1H-pyrazole-4-carboxamide] |

The next lines start with the compound.

| SMILES | pIC50 |
| --- | --- |
| CCC(F)(F)c1cccc(NC(=O)C2C(=O)N(c3ccc4c(C)cn(C)c4c3)N=C2C)c1 (centres unmarked) [compound 497, N-(3-(1,1-difluoropropyl)phenyl)-1-(1,3-dimethyl-1H-indol-6-yl)-3-methyl-5-oxo-4,5-dihydro-1H-pyrazole-4-carboxamide] | 8.22 to 11.00 |
| CCC(F)(F)c1cccc(NC(=O)C2C(=O)N(c3ccc(OC)c(-c4ccccc4)n3)N=C2C)c1 (centres unmarked) [compound 498, N-(3-(1,1-difluoropropyl)phenyl)-1-(5-methoxy-6-phenylpyridin-2-yl)-3-methyl-5-oxo-4,5-dihydro-1H-pyrazole-4-carboxamide] | 8.22 to 11.00 |
| CCC(F)(F)c1cccc(NC(=O)C2C(=O)N(c3ccc4cn[nH]c4c3)N=C2C)c1 (centres unmarked) [compound 499, N-[3-(1,1-difluoropropyl)phenyl]-1-(1H-indazol-6-yl)-3-methyl-5-oxo-4H-pyrazole-4-carboxamide] | 8.22 to 11.00 |
| CCC(F)(F)c1cccc(NC(=O)C2C(=O)N(c3ccc4nc[nH]c4c3)N=C2C)c1 (centres unmarked) [compound 500, 1-(1H-benzo[d]imidazol-6-yl)-N-(3-(1,1-difluoropropyl)phenyl)-3-methyl-5-oxo-4,5-dihydro-1H-pyrazole-4-carboxamide] | 8.22 to 11.00 |
| CCC(F)(F)c1cccc(NC(=O)C2C(=O)N(c3ccc(C#N)cc3)N=C2C)c1 (centres unmarked) [compound 501, 1-(4-cyanophenyl)-N-(3-(1,1-difluoropropyl)phenyl)-3-methyl-5-oxo-4,5-dihydro-1H-pyrazole-4-carboxamide] | 8.22 to 11.00 |
| CCC(F)(F)c1cccc(NC(=O)C2C(=O)N(c3ccc4cc(C)n(C)c4c3)N=C2C)c1 (centres unmarked) [compound 502, N-[3-(1,1-difluoropropyl)phenyl]-1-(1,2-dimethylindol-6-yl)-3-methyl-5-oxo-4H-pyrazole-4-carboxamide] | 8.22 to 11.00 |
| CC1=NN(c2ccc(OC(F)F)cc2)C(=O)C1C(=O)Nc1cncc(C#N)c1 (centres unmarked) [compound 503, N-(5-cyanopyridin-3-yl)-1-(4-(difluoromethoxy)phenyl)-3-methyl-5-oxo-4,5-dihydro-1H-pyrazole-4-carboxamide] | 6.00 to 7.00 |
| CC1=NN(c2ccc(OC(F)F)cc2)C(=O)C1C(=O)Nc1ccnc(C#N)c1 (centres unmarked) [compound 504, N-(2-cyanopyridin-4-yl)-1-(4-(difluoromethoxy)phenyl)-3-methyl-5-oxo-4,5-dihydro-1H-pyrazole-4-carboxamide] | 6.00 to 7.00 |
| CCC(F)(F)c1cccc(NC(=O)C2C(=O)N(c3ccc(OC)cc3F)N=C2C)c1 (centres unmarked) [compound 505, N-(3-(1,1-difluoropropyl)phenyl)-1-(2-fluoro-4-methoxyphenyl)-3-methyl-5-oxo-4,5-dihydro-1H-pyrazole-4-carboxamide] | 8.22 to 11.00 |
| CCC(F)(F)c1cc(NC(=O)C2C(=O)N(c3ccc(OC(F)F)cc3)N=C2C)ccn1 (centres unmarked) [compound 506, 1-(4-(difluoromethoxy)phenyl)-N-(2-(1,1-difluoropropyl)pyridin-4-yl)-3-methyl-5-oxo-4,5-dihydro-1H-pyrazole-4-carboxamide] | 7.00 to 8.22 |
| CCC(F)(F)c1cccc(NC(=O)C2C(=O)N(c3cc4[nH]ccc4cn3)N=C2C)c1 (centres unmarked) [compound 507, N-(3-(1,1-difluoropropyl)phenyl)-3-methyl-5-oxo-1-(1H-pyrrolo[3,2-c]pyridin-6-yl)-4,5-dihydro-1H-pyrazole-4-carboxamide] | 8.22 to 11.00 |
| CCC(F)(F)c1cccc(NC(=O)C2C(=O)N(c3ccc(S(C)(=O)=O)cc3)N=C2C)c1 (centres unmarked) [compound 508, N-(3-(1,1-difluoropropyl)phenyl)-3-methyl-1-(4-(methylsulfonyl)phenyl)-5-oxo-4,5-dihydro-1H-pyrazole-4-carboxamide] | 8.22 to 11.00 |
| CCC(F)(F)c1cccc(NC(=O)C2C(=O)N(c3ccc4ccn(C(=O)c5ccccc5O)c4c3)N=C2C)c1 (centres unmarked) [compound 509, N-(3-(1,1-difluoropropyl)phenyl)-1-(1-(2-hydroxybenzoyl)-1H-indol-6-yl)-3-methyl-5-oxo-4,5-dihydro-1H-pyrazole-4-carboxamid] | 8.22 to 11.00 |
| CCC(F)(F)c1cccc(NC(=O)C2C(=O)N(c3ccc(OC)nn3)N=C2C)c1 (centres unmarked) [compound 510, N-(3-(1,1-difluoropropyl)phenyl)-1-(6-methoxypyridazin-3-yl)-3-methyl-5-oxo-4,5-dihydro-1H-pyrazole-4-carboxamide] | 8.22 to 11.00 |
| CCC(F)(F)c1cncc(NC(=O)C2C(=O)N(c3ccc(OC(F)F)cc3)N=C2C)c1 (centres unmarked) [compound 511, 1-(4-(difluoromethoxy)phenyl)-N-(5-(1,1-difluoropropyl)pyridin-3-yl)-3-methyl-5-oxo-4,5-dihydro-1H-pyrazole-4-carboxamide] | 8.22 to 11.00 |

Reference: US20250186433A1, “ACSS2 INHIBITORS AND METHODS OF USE THEREOF” (EpiVario, Inc., priority 2017, published 2025)
